Experimental data from ChEMBL document CHEMBL3044789, “Comparing weed and crop seedling response to pre-emergence pendimethalin application in Corchorus olitorius and Abelmoschus esculentus” (Crop Prot, 2006).

What was measured:
Commelina diffusa [1] = assay: Herbicidal activity against Commelina diffusa in Corchorus olitorius plots assessed as weed cover at 0.66 kg a.i/ha after 4 weeks (reference value: 20.1+/- 0.57 %); type: functional
Corchorus olitorius [2] = assay: Phytotoxicity in Corchorus olitorius assessed as seedling emergence at 0.33 kg a.i/ha treated to soil after 7 weeks (reference value: 95 +/- 0.05 %); type: organism-based; conditions: in vivo, other, 1176 h
Corchorus olitorius [3] = assay: Phytotoxicity in Corchorus olitorius assessed as shoot length at 0.99 kg a.i/ha applied as solution after 7 weeks (reference value: 22.9 +/- 0.8 mm); type: organism-based; conditions: in vivo, other, 1176 h
Corchorus olitorius [4] = assay: Phytotoxicity in Corchorus olitorius assessed as seedling injury at 1.32 kg a.i/ha applied as solution after 7 weeks relative to control; type: organism-based; conditions: in vivo, other, 1176 h
Commelina diffusa [5] = assay: Herbicidal activity against Commelina diffusa in Abelmoschus esculentus plots assessed as weed cover at 0.66 kg a.i/ha after 7 weeks (reference value: 14.7 +/- 0.46 %); type: functional
Synedrella nodiflora [6] = assay: Herbicidal activity against Synedrella nodiflora in Abelmoschus esculentus plots assessed as weed cover at 1.32 kg a.i/ha after 2 weeks (reference value: 63.5 +/- 0.29 %); type: functional
Ageratum conyzoides [7] = assay: Herbicidal activity against Ageratum conyzoides in Corchorus olitorius plots assessed as weed cover at 1.32 kg a.i/ha after 2 weeks (reference value: 81.7 +/- 0.43 %); type: functional
Corchorus olitorius [8] = assay: Phytotoxicity in Corchorus olitorius assessed as root length at 0.66 kg a.i/ha applied as solution after 7 weeks (reference value: 14.3 +/- 1.06 mm); type: organism-based; conditions: in vivo, other, 1176 h
Chromolaena odorata [9] = assay: Herbicidal activity against Chromolaena odorata in Corchorus olitorius plots assessed as minor weed growth at 0.99 kg a.i/ha after 2 weeks; type: functional
[10] = test system: Rottboellia cochinchinensis; assay: Herbicidal activity against Rottboellia cochinchinensis in Corchorus olitorius plots assessed as major weed growth at 0.33 kg a.i/ha after 2 weeks; type: functional
Euphorbia heterophylla [11] = assay: Herbicidal activity against Euphorbia heterophylla in Corchorus olitorius plots assessed as weed cover at 0.33 kg a.i/ha after 7 weeks (reference value: 1.7 +/- 0.56 %); type: functional
Ageratum conyzoides [12] = assay: Herbicidal activity against Ageratum conyzoides in Abelmoschus esculentus plots assessed as weed cover at 1.32 kg a.i/ha after 7 weeks (reference value: 14.7 +/- 0.46 %); type: functional
Cyperus rotundus [13] = assay: Herbicidal activity against Cyperus rotundus in Abelmoschus esculentus plots assessed as weed cover at 0.66 kg a.i/ha after 2 weeks (reference value: 63.5 +/- 0.29 %); type: functional
Chromolaena odorata [14] = assay: Herbicidal activity against Chromolaena odorata in Corchorus olitorius plots assessed as weed cover at 0.99 kg a.i/ha after 7 weeks (reference value: 1.7 +/- 0.56 %); type: functional
Euphorbia heterophylla [15] = assay: Herbicidal activity against Euphorbia heterophylla in Abelmoschus esculentus plots assessed as major weed growth at 0.99 kg a.i/ha after 2 weeks; type: functional
Euphorbia heterophylla [16] = assay: Herbicidal activity against Euphorbia heterophylla in Corchorus olitorius plots assessed as weed recovery at 0.99 kg a.i/ha after 2 weeks (reference value: 78.3 +/- 0.74 %); type: functional
Corchorus olitorius [17] = assay: Phytotoxicity in Corchorus olitorius assessed as seedling injury at 0.33 kg a.i/ha applied as solution after 7 weeks relative to control; type: organism-based; conditions: in vivo, other, 1176 h
Corchorus olitorius [18] = assay: Phytotoxicity in Corchorus olitorius assessed as root length at 0.33 kg a.i/ha treated to soil after 7 weeks (reference value: 16.9 +/- 0.09 mm); type: organism-based; conditions: in vivo, other, 1176 h
Calopogonium mucunoides [19] = assay: Herbicidal activity against Calopogonium mucunoides in Corchorus olitorius plots assessed as major weed growth at 0.99 kg a.i/ha after 2 weeks; type: functional
Cyperus rotundus [20] = assay: Herbicidal activity against Cyperus rotundus form in Abelmoschus esculentus plots assessed as minor weed growth at 0.66 kg a.i/ha after 2 weeks; type: functional
Euphorbia heterophylla [21] = assay: Herbicidal activity against Euphorbia heterophylla in Abelmoschus esculentus plots assessed as major weed growth at 0.33 kg a.i/ha after 2 weeks; type: functional
Ageratum conyzoides [22] = assay: Herbicidal activity against Ageratum conyzoides in Abelmoschus esculentus plots assessed as weed cover at 1.32 kg a.i/ha after 2 weeks (reference value: 63.5 +/- 0.29 %); type: functional
Euphorbia heterophylla [23] = assay: Herbicidal activity against Euphorbia heterophylla in Corchorus olitorius plots assessed as major weed growth at 0.66 kg a.i/ha after 2 weeks; type: functional
Abelmoschus esculentus [24] = assay: Phytotoxicity in Abelmoschus esculentus assessed as shoot length at 1.32 kg a.i/ha applied as solution after 7 weeks (reference value: 28.7 +/- 0.34 mm); type: organism-based; conditions: in vivo, other, 1176 h
Euphorbia heterophylla [25] = assay: Herbicidal activity against Euphorbia heterophylla in Abelmoschus esculentus plots assessed as weed cover at 1.32 kg a.i/ha after 4 weeks (reference value: 22.6 +/- 0.49 %); type: functional
Cyperus rotundus [26] = assay: Herbicidal activity against Cyperus rotundus in Corchorus olitorius plots assessed as weed recovery at 0.66 kg a.i/ha after 2 weeks (reference value: 78.3 +/- 0.74 %); type: functional
Synedrella nodiflora [27] = assay: Herbicidal activity against Synedrella nodiflora in Corchorus olitorius plots assessed as weed recovery at 0.66 kg a.i/ha after 2 weeks (reference value: 78.3 +/- 0.74 %); type: functional
Calopogonium mucunoides [28] = assay: Herbicidal activity against Calopogonium mucunoides in Abelmoschus esculentus plots assessed as weed cover at 0.33 kg a.i/ha after 2 weeks (reference value: 63.5 +/- 0.29 %); type: functional
Euphorbia heterophylla [29] = assay: Herbicidal activity against Euphorbia heterophylla in Corchorus olitorius plots assessed as weed cover at 0.33 kg a.i/ha after 2 weeks (reference value: 81.7 +/- 0.43 %); type: functional
Synedrella nodiflora [30] = assay: Herbicidal activity against Synedrella nodiflora in Abelmoschus esculentus plots assessed as weed recovery at 0.33 kg a.i/ha after 2 weeks (reference value: 60.1 +/- 0.46 %); type: functional
Mimosa pudica = assay: Herbicidal activity against Mimosa pudica in Abelmoschus esculentus plots assessed as weed recovery at 0.33 kg a.i/ha after 2 weeks (reference value: 60.1 +/- 0.46 %); type: functional
Abelmoschus esculentus [31] = assay: Phytotoxicity in Abelmoschus esculentus assessed as crop seedling injury at 1.32 kg a.i/ha after 2 weeks relative to untreated control; type: organism-based; conditions: in vivo, 336 h
[32] = test system: Rottboellia cochinchinensis; assay: Herbicidal activity against Rottboellia cochinchinensis in Corchorus olitorius plots assessed as weed recovery at 0.33 kg a.i/ha after 2 weeks (reference value: 78.3 +/- 0.74 %); type: functional
Euphorbia heterophylla [33] = assay: Herbicidal activity against Euphorbia heterophylla in Corchorus olitorius plots assessed as major weed growth at 0.99 kg a.i/ha after 2 weeks; type: functional
Cyperus rotundus [34] = assay: Herbicidal activity against Cyperus rotundus in Corchorus olitorius plots assessed as minor weed growth at 0.66 kg a.i/ha after 2 weeks; type: functional
Calopogonium mucunoides [35] = assay: Herbicidal activity against Calopogonium mucunoides in Corchorus olitorius plots assessed as major weed growth at 0.33 kg a.i/ha after 2 weeks; type: functional
Calopogonium mucunoides [36] = assay: Herbicidal activity against Calopogonium mucunoides in Abelmoschus esculentus plots assessed as weed recovery at 1.32 kg a.i/ha after 2 weeks (reference value: 60.1 +/- 0.46 %); type: functional

CCC(CC)Nc1c([N+](=O)[O-])cc(C)c(C)c1[N+](=O)[O-] [PENDIMETHALIN] showed an Activity (Commelina diffusa [1]) of 63.3%, an Activity (Corchorus olitorius [2]) of 85% and an Activity (Corchorus olitorius [3]) of 5.7 mm. The Activity (Corchorus olitorius [4]) was 66.7%, the Activity (Commelina diffusa [5]) was 90% and the Activity (Synedrella nodiflora [6]) was 45%. For the same molecule, the Activity (Ageratum conyzoides [7]) was 41.7%, the Activity (Corchorus olitorius [8]) was 2.6 mm and the Activity (Chromolaena odorata [9]) was 1 /m2. The Activity [10] was 31 /m2, the Activity (Euphorbia heterophylla [11]) was 100% and the Activity (Ageratum conyzoides [12]) was 82.4%. For the same molecule, the Activity (Cyperus rotundus [13]) was 50.8%, the Activity (Chromolaena odorata [14]) was 95% and the Activity (Euphorbia heterophylla [15]) was 31 /m2. For the same molecule, the Activity (Euphorbia heterophylla [16]) was 21.7%, the Activity (Corchorus olitorius [17]) was 18.3% and the Activity (Corchorus olitorius [18]) was 14.2 mm. The Activity (Calopogonium mucunoides [19]) was 31 /m2, the Activity (Cyperus rotundus [20]) was 1 /m2 and the Activity (Euphorbia heterophylla [21]) was 31 /m2. The Activity (Ageratum conyzoides [22]) was 45%, the Activity (Euphorbia heterophylla [23]) was 31 /m2 and the Activity (Abelmoschus esculentus [24]) was 14.6 mm. It also gave an Activity (Euphorbia heterophylla [25]) of 36.2%, an Activity (Cyperus rotundus [26]) of 33.3% and an Activity (Synedrella nodiflora [27]) of 33.3%. The Activity (Calopogonium mucunoides [28]) was 56.8%, the Activity (Euphorbia heterophylla [29]) was 63.3% and the Activity (Synedrella nodiflora [30]) was 39.2%. The Activity (Mimosa pudica) was 39.2%, the Activity (Abelmoschus esculentus [31]) was 53.8% and the Activity [32] was 31.7%. For the same molecule, the Activity (Euphorbia heterophylla [33]) was 31 /m2, the Activity (Cyperus rotundus [34]) was 1 /m2 and the Activity (Calopogonium mucunoides [35]) was 31 /m2. The Activity (Calopogonium mucunoides [36]) was 33.2%.
